Data as given in patent US11518764B2, “Substituted heteroaryls as inhibitors of the BCL6 BTB domain protein-protein interaction” (Ontario Institute for Cancer Research (OICR), priority 2018, dated 2022).
Where two headings read alike, the source gives them in different places.

Legend:
[1] = target: BCL6 BTB domain (Homo sapiens (Human), UniProt P41182); test: Surface plasmon resonance (SPR) assay; assay type: binding; details: BCL6 BTB domain captured on SA chip, single cycle kinetics
[2] = system: Karpas422 cells; test: Tumor cell growth inhibition assay; assay type: cell-based; details: Homo sapiens, KARPAS-422, 144 h
How it was run: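 Karpas422 cells (2,000/well) in Alpha-MEM with 10% FBS dosed across 10 concentrations (top 5 uM) and grown six days at 37° C., 5% CO2. Viability read as ATPlite luminescence.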

[3] = system: BCL6 reporter construct (3xBCL6-TK-Luc) in SuDHL4 cells; test: Cell-based luciferase assay
How it was run: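 SuDHL4 cells stably carrying a 3×BCL6-site TK-promoter firefly luciferase reporter, seeded at 15,000 cells/well, were dosed over a 10-point range (top 10 uM) and grown two days at 37 °C, 5% CO2. Luminescence then read after adding neolite reagent at room temperature.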

[4] = read-out: Tumor Growth Inhibition in Karpas-422 (IC50, uM), Karpas422 cells, six days, ATPlite
[5] = Homo sapiens, SU-DHL-4, 48 h, read-out: Luciferase-Assay EC50, uM), SuDHL4-3xBCL6-TK-Luc cells, two days, high dose 10 uM

Compound | Kd [1] [nM] | IC50 ([2]; Karpas422 cells, six days, ATPlite, read-out: Tumor Growth Inhibition in Karpas-422 (IC50)) [µM] | EC50 ([3]; Homo sapiens, SU-DHL-4, 48 h, SuDHL4-3xBCL6-TK-Luc cells, two days, high dose 10 uM, read-out: Luciferase-Assay EC50) [µM] | IC50 [2, 4] [µM] | EC50 [3, 5] [µM]
Cn1cnc2c(c(-c3cc(Cl)c(O)c(C(N)=O)c3)cn2CC(=O)Nc2cc(N3C4COCC5CC543)ncc2Cl)c1=O (stereo not drawn) [Compound I-281] | 60.8 | 2.18 | 2.88 | – | –
Cn1cnc2c(c(-c3cc(Cl)c(O)c(C(N)=O)c3)cn2CC(=O)Nc2cc(N3CC4CC(C3)O4)ncc2Cl)c1=O [Compound I-282] | 21.3 | – | – | 0.489 | 0.669
CN1C2CCC1CN(c1cc(NC(=O)Cn3cc(-c4cc(F)c(O)c(C(N)=O)c4)c4c(=O)n(C)cnc43)c(Cl)cn1)C2 [Compound I-283] | 16.7 | – | – | 0.282 | 0.222
Cn1cnc2c(c(-c3cc(F)c(O)c(C(N)=O)c3)cn2CC(=O)Nc2cc(N3CC4CC3CO4)ncc2Cl)c1=O (stereo not drawn) [Compound I-284] | 23.4 | – | – | 0.75 | 0.628
CN1C2CCC1CN(c1cc(NC(=O)Cn3cc(-c4cc(C(N)=O)c(O)c(F)c4F)c4c(=O)n(C)cnc43)c(Cl)cn1)C2 [Compound I-285] | 102 | – | – | 1.6 | 1.6
Cn1cnc2c(c(-c3cc(C(N)=O)c(O)c(F)c3F)cn2CC(=O)Nc2cc(N3CC4CC3CO4)ncc2Cl)c1=O (stereo not drawn) [Compound I-286] | 83.7 | – | – | 1.54 | 1.96
CN1CC2CN(c3cc(NC(=O)Cn4cc(-c5cc(F)c(O)c(C(N)=O)c5)c5c(=O)n(C)cnc54)c(Cl)cn3)CC2C1 (stereo not drawn) [Compound I-287] | 18.6 | – | – | 1.44 | 1.71
CN(C)c1cc(NC(=O)Cn2cc(-c3cc(F)c(O)c(C(N)=O)c3)c3c(=O)n(C)cnc32)c(Cl)cn1 [Compound I-288] | 9.47 | – | – | 0.128 | 0.181
CN1CCCN(c2cc(NC(=O)Cn3cc(-c4cc(F)c(O)c(C(N)=O)c4)c4c(=O)n(C)cnc43)c(Cl)cn2)CC1 [Compound I-289] | 16 | – | – | 0.652 | 1.18
COc1cc(NC(=O)Cn2cc(-c3cc(Cl)c(O)c(C(N)=O)c3)c3c(=O)n(C)c(O)nc32)c(Cl)cn1 [Compound I-290] | 18400 | – | – | 10 | 10
CN(C)c1cc(NC(=O)Cn2cc(-c3cc(Cl)c(O)c(C(N)=O)c3)c3c(=O)n(C)c(Cl)nc32)c(Cl)cn1 [Compound I-292] | 81.2 | – | – | 0.575 | 1.66
CN(C)c1cc(NC(=O)Cn2cc(-c3cc(Cl)c(O)c(C(N)=O)c3)c3c(=O)[nH]c(Cl)nc32)c(Cl)cn1 [Compound I-293] | 18.3 | – | – | 2.44 | 10
C[C@H]1COCCN1c1cc(NC(=O)Cn2cc(-c3cc(Cl)c(O)c(C(N)=O)c3)c3c(=O)[nH]c(Cl)nc32)c(Cl)cn1 [Compound I-294] | 9.95 | – | – | 1.88 | 1.43
CC(C)N1CCN(c2cc(NC(=O)Cn3cc(-c4cc(F)c(O)c(C(N)=O)c4)c4c(=O)n(C)cnc43)c(Cl)cn2)[C@@H](C)C1 [Compound I-295] | 7.84 | – | – | 0.106 | 0.14
C[C@H]1CN(C2CC2)CCN1c1cc(NC(=O)Cn2cc(-c3cc(Cl)c(O)c(C(N)=O)c3)c3c(=O)n(C)cnc32)c(Cl)cn1 [Compound I-296] | 33.4 | – | – | 0.209 | 0.271
CN(C)c1cc(NC(=O)Cn2cc(-c3cc(C(N)=O)c(O)c(F)c3F)c3c(=O)n(C)cnc32)c(Cl)cn1 [Compound I-297] | 57.9 | – | – | 0.846 | 0.395
Cn1cnc2c(c(-c3cc(C(N)=O)c(O)c(F)c3F)cn2CC(=O)Nc2cc(N3CCCC3)ncc2Cl)c1=O [Compound I-298] | 32.4 | – | – | 0.883 | 0.399

Compound | Kd [1] [nM] | IC50 ([2]; Karpas422 cells, six days, ATPlite, read-out: Tumor Growth Inhibition in Karpas-422 (IC50)) [µM] | EC50 ([3]; Homo sapiens, SU-DHL-4, 48 h, SuDHL4-3xBCL6-TK-Luc cells, two days, high dose 10 uM, read-out: Luciferase-Assay EC50) [µM] | IC50 [2, 4] [µM] | EC50 [3, 5] [µM]
Cn1cnc2c(c(-c3cc(C(N)=O)c(O)c(F)c3F)cn2CC(=O)Nc2cc(N3CC4COCC4C3)ncc2Cl)c1=O (stereo not drawn) [Compound I-299] | 31.4 | – | – | 0.685 | 0.521
C[C@H]1CN(CC2CC2)CCN1c1cc(NC(=O)Cn2cc(-c3cc(Cl)c(O)c(C(N)=O)c3)c3c(=O)n(C)cnc32)c(Cl)cn1 [Compound I-301] | 19.6 | – | – | 0.252 | 0.21
C[C@H]1COCCN1c1cc(NC(=O)Cn2cc(-c3cc(C(N)=O)c(O)c4c3OCO4)c3c(=O)n(C)cnc32)c(Cl)cn1 [Compound I-302] | 5.05 | – | – | 0.0528 | 0.0865
C[C@H]1CN(CC2CC2)CCN1c1cc(NC(=O)Cn2cc(-c3cc(F)c(O)c(C(N)=O)c3)c3c(=O)n(C)cnc32)c(Cl)cn1 [Compound I-303] | 6.36 | – | – | 0.0323 | 0.0493
C[C@H]1CN(C)CCN1c1cc(NC(=O)Cn2cc(-c3cc(C(N)=O)c(O)c(F)c3F)c3c(=O)n(CC#Cc4cnn(C)c4)cnc32)c(Cl)cn1 [Compound I-304] | 6.56 | – | – | 0.314 | 0.228
Cc1nc2c(c(-c3cc(C(N)=O)c(O)c(F)c3F)cn2CC(=O)Nc2cc(N3CCN(C)CC3)ncc2Cl)c(=O)n1C [Compound I-305] | 70.5 | – | – | 1.32 | 0.647
Cc1nc2c(c(-c3cc(Cl)c(O)c(C(N)=O)c3)cn2CC(=O)Nc2cc(N3CCN(C)CC3)ncc2Cl)c(=O)n1C [Compound I-306] | 15.8 | – | – | 0.265 | 0.106
Cc1nc2c(c(-c3cc(C(N)=O)c(O)c4c3OCO4)cn2CC(=O)Nc2cc(N3CCOC[C@@H]3C)ncc2Cl)c(=O)n1C [Compound I-308] | 2.05 | – | – | 0.0161 | 0.0368
Cc1nc2c(c(-c3cc(C(N)=O)c(O)c4c3OCCO4)cn2CC(=O)Nc2cc(N3CCOC[C@@H]3C)ncc2Cl)c(=O)n1C [Compound I-309] | 146 | – | – | 2.55 | 1.02
C[C@H]1CN(Cc2ccccc2)CCN1c1cc(NC(=O)Cn2cc(-c3cc(C(N)=O)c(O)c(F)c3F)c3c(=O)n(C)cnc32)c(Cl)cn1 [Compound I-314] | 117 | – | – | 6.7 | 0.901
Cc1nc2c(c(-c3cc(Cl)c(O)c(C(N)=O)c3)cn2CC(=O)Nc2cc(N3CCOC[C@@H]3C)nc(F)c2Cl)c(=O)n1C [Compound I-315] | 14.2 | – | – | 0.147 | 0.114
Cc1nc2c(c(-c3cc(C(N)=O)c(O)c(F)c3F)cn2CC(=O)Nc2cc(N3CCOC[C@@H]3C)nc(F)c2Cl)c(=O)n1C [Compound I-316] | 24.1 | – | – | 0.376 | 0.243
C[C@H]1COCCN1c1cc(NC(=O)Cn2cc(-c3cc(C(N)=O)c(O)c(F)c3F)c3c(=O)n(C)cnc32)c(Cl)c(F)n1 [Compound I-317] | 54.9 | – | – | 0.467 | 0.633
Cn1cnc2c(c(-c3cc(C(N)=O)c(O)c(F)c3F)cn2CC(=O)Nc2cc(N3CCOCC3)nc(F)c2Cl)c1=O [Compound I-318] | 51.8 | – | – | 0.319 | 0.228
C[C@H]1COCCN1c1cc(NC(=O)Cn2cc(-c3cc(F)c(O)c(C(N)=O)c3)c3c(=O)n(C)cnc32)c(Cl)c(F)n1 [Compound I-319] | 3.96 | – | – | 0.0994 | 0.104
CN1CC2CCC(C1)N2c1cc(NC(=O)Cn2cc(-c3cc(C(N)=O)c(O)c(F)c3F)c3c(=O)n(C)cnc32)c(Cl)cn1 [Compound I-320] | 48.4 | – | – | 0.979 | 1.15
